The source of these data is patent US5591752A, “Quinoline derivative” (Ube Industries, Ltd., priority 1993, dated 1997).

Structures are written as SMILES. Read-outs that look alike come from different tables or passages of the source.

Experiment [1] deals with T1, Leukotriene D4 (LTD4) receptor (Cavia porcellus, UniProt Q2NNR5).
T1 construct: lung cell membrane fractions of guinea pigs were used; from tissue; host or cells: lung membrane fractions of Hartley strain male guinea pigs
T1 sequence (Q2NNR5 1-340): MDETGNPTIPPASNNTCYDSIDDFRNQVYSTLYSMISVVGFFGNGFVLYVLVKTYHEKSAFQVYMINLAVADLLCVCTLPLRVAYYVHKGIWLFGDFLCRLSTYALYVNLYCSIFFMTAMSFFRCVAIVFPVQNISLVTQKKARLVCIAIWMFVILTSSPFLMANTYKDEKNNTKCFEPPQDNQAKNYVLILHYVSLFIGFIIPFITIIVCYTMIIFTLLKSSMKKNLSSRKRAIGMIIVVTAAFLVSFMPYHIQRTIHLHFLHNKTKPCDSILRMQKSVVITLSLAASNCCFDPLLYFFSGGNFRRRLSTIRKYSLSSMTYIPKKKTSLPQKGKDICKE
Nature of the experiment: Leukotriene D4 receptor binding test ([3H]ICI-198615 displacement, lung cell membrane fractions). Conditions: guinea pig lung membranes, [3H]ICI-198615 about 0.2 nM, pKi=-log Ki. As to the method: Leukotriene D4 receptor binding test
<Preparation of receptor samples>
As receptor samples, lung cell membrane fractions of guinea pigs were used. The membrane fractions were prepared according to the method of Ahn et al. (Ahn, H. S. & Barnett, A. (1986) Eur. J. Pharmacol., 127, 153.). After Hartley strain male guinea pigs (body weight: 400 to 500 g, supplied by Nihon SLC Co.) were killed by exsanguination, lungs were extracted and perfused with a physiological saline solution (Otsuka Seiyaku) from lung arteries. The extracted lungs were cut into pieces immediately or after the lungs were stored by freezing them at -80 ° C. A 10-fold amount of a buffer solution (pH 7.4) of 10 mM PIPES, 10 mM MgCl2, 10 mM CaCl2 and 50 mM NaCl was added thereto and the mixtures were made suspensions by a homogenizer (manufactured by Yamato Co., LP-41C Model). After the suspensions were filtered with gauze, the filtrates were centrifuged by an ultracentrifuge (manufactured by Hitachi Co., 70P-72 Model) with 50,000 g for 10 minutes, whereby membrane fractions were deposited. The membrane fractions were washed twice and then suspended in the same buffer solution to obtain receptor samples. Measurement of a protein concentration was conducted by the Lowry method (Lowry, O, H. et al. (1951) J. Biol. Chem., 193,265.) by using bovine serum albumin as a standard protein. The samples prepared (protein amount: 10 to 25 mg/ml) were stored by freezing them at -80° C. and used for experiments.
<Leukotriene D4 receptor binding test>
The leukotriene D4 (LTD4) receptor binding test was conducted according to the method of O'Sullivan et al. (O'Sullivan, B. P. & Mong, S. (1989) Mol. Pharmacol., 35, 795.). The receptor samples were diluted with a buffer solution (pH 7.4) of 10 mM PIPES, 10 mM MgCl2, 10 mM CaCl2 and 50 mM NaCl and 0.42 mg/ml in terms of a protein amount was used. As a labeling compound, [^3 H]ICI-198615 (produced by Du Pont Co., 60 Ci/mmol) which specifically binds to the LTD4 receptor was used. [^3 H]ICI-198615 and a compound to be tested were dissolved in dimethylsulfoxide and a 1/50 amount (2% by volume) of the solution was added to the receptor-diluted solutions, respectively. 500 μl of each reaction mixture was incubated at 25° C. for 40 minutes and then filtered with a glass fiber filter (Whatman, GF/B type) by using a cell harvester (manufactured by Brandel Co., M-30R Model). The filters were washed with 10 ml of an ice-cooled 100 mM NaCl-50 mM phosphate buffer solution (pH 7.5) and subjected to ultrasonic treatment in 9 ml of a liquid scintillator (manufactured by Nacalai Tesque, Co., Clear sol I) for 2 minutes. Thereafter, radioactivity was measured by a liquid scintillation counter (manufactured by Packard Co., 2000 CA Model). In a test of determining a dissociation constant of ICI-198615, 0.1 to 2 nM [^3 H]ICI-198615 and 10 μM non-radioactive ICI-198615 were used. In a test of determining inhibition constants of the respective compounds to be tested, [^3 H]ICI-198615 having a concentration of about 0.2 nM and the compounds each having a concentration of 0.1 pM to 0.1 mM were used.
<Data analysis of receptor binding test>
The dissociation constant (Kd) of ICI-198615 and the binding inhibition constants (Ki) of the respective compounds to be tested were determined by the following numerical formulae (A), (B) and (C).
wherein B: a concentration of a label [3H] which is bound to a receptor, Bmax: a maximum receptor-binding concentration of a label [^3 H], F: a concentration of a label [^3 H] which is not bound to a receptor, [L]: a concentration of a label [^3 H], IC50 : a concentration of a compound which inhibits 50% of binding of a label [^3 H] to a receptor and pKi: a logarithm, of a reciprocal of Ki.

Experiment [2] deals with Leukotriene D4-induced respiratory contraction. Nature of the experiment: Leukotriene D4-induced respiratory contraction test (Konzett and Rossler method). Conditions: Cavia porcellus, po, LTD4 0.5 μg/kg i.v. 1 hour later, anesthetized Hartley guinea pigs, read-out: Inhibition ratio. The experiment is classed as in vivo, guinea pig. The method, then: Leukotriene D4 -induced respiratory contraction test
Hartley strain male guinea pigs (body weight: 400 to 600 g, supplied by Nihon SLC Co.) were used and all of them were bred under conditions of constant temperature (23°±2° C.) and constant humidity ([…]). The animals which had been fasted for 24 hours before experiments were used.
LTD4 (Funakoshi) dissolved in a physiological saline solution (Otsuka Seiyaku) was used. The compounds to be tested suspended in a 0.5% carboxymethyl cellulose aqueous solution were used.
The operation was conducted according to the method of Konzett and Rossler (Konzett, H. and Rossler, R. Naunyn Schmiedebergs (1940) Arch. Exp. Pathol. Pharmacol., 195, 71.). Each guinea pig was anesthetized with urethane (1.5 g/kg, i.p.) and then fixed in the supine position. A trachea was incised and a .phi. type cannula was inserted into the trachea and connected to a respirator (Shinano Seisakusho, SN-480-7) for small animals. Artificial respiration with positive pressure was conducted with a pressure loaded to a lung of 10 cm H2 O, an air supplying rate of 5 ml/stroke and 60 strokes/min. The air supplying rate to the trachea was measured by differential pressure transducers (Nihon Koden, TU-241T and TP-602T) connected to the cannula in the trachea and recorded on a rectigraph (Nihon Koden, WT-645G Model).
LTD4 (0.5 μg/kg/0.5 ml) was administered intravenously (i.v.) from a cannula inserted into a common jugular vein to cause shrinkage of a trachea. Subsequently, a compound to be tested was administered orally (p.o.) after 10 minutes and LTD4 was administered intravenously (i.v.) again after 1 hour to cause shrinkage of the trachea. The results are shown by using a ratio of inhibiting a trachea-shrinking reaction before administering the compound to be tested.

Setting [3] is: read-out: pKi value (converted).

In experiment [1] (pKi value), `O=C(O)CCSC1c2ccccc2COc2ccc(OCc3ccc4cc(F)c(Cl)cc4n3)cc21` (single isomer, unassigned; (+)) [Example 50, (+)-11-(2-Carboxyethylthio)-2-(7-chloro-6-fluoroquinolin-2-yl)methoxy-6,11-dihydrodibenz[b,e]oxepine] gave a Ki of 0.0794 nM. Also, the inhibition in vivo at 1 mg/kg in experiment [2] is 100%.

For the molecule `c1ccc(Cc2nnn[nH]2)c(COc2ccc(OCc3ccc4ccccc4n3)cc2)c1` [Compound A, 5-[[2-[[4-(2-quinolinylmethoxy)phenoxy]methyl]phenyl]methyl]-1H-tetrazole, reference compound], the Ki in experiment [1] (setting [3]) is 6.31 nM. In addition, in experiment [2], the inhibition in vivo at 1 mg/kg is 51%.

As for `O=C(O)CCSC1c2ccccc2COc2ccc(OCc3ccc4cc(F)c(Cl)cc4n3)cc21` (centres unmarked) [Example 1, 11-(2-Carboxyethylthio)-2-(7-chloro-6-fluoroquinolin-2-yl)methoxy-6,11-dihydrodibenz[b,e]oxepine], the inhibition in vivo at 1 mg/kg in experiment [2] worked out at 100%.

In experiment [1] (pKi value), `O=C(O)CCSC1c2ccccc2COc2ccc(OCc3ccc4ccc(Cl)cc4n3)cc21` (centres unmarked) [Example 2, 11-(2-Carboxyethylthio)-2-(7-chloroquinolin-2-yl)methoxy-6,11-dihydrodibenz[b,e]oxepine] had a Ki of 0.794 nM. Moreover, in experiment [2], the inhibition in vivo at 1 mg/kg was determined as 100%.

In turn, `O=C(O)CCSC1c2ccccc2COc2ccc(OCc3ccc4cc(F)ccc4n3)cc21` (centres unmarked) [Example 3, 11-(2-Carboxyethylthio)-2-(6-fluoroquinolin-2-yl)methoxy-6,11-dihydrodibenz[b,e]oxepine] gave a Ki in experiment [1] (pKi value) of 3.16 nM. For the same molecule, the inhibition in vivo at 1 mg/kg in experiment [2] is 100%.

`O=C(O)CCSC1c2ccccc2COc2ccc(OCc3ccc4ccc(F)cc4n3)cc21` (centres unmarked) [Example 4, 11-(2-Carboxyethylthio)-2-(7-fluoroquinolin-2-yl)methoxy-6,11-dihydrodibenz[b,e]oxepine] showed a Ki in experiment [1] (pKi value) of 1.58 nM. Besides, the inhibition in vivo at 1 mg/kg in experiment [2] worked out at 93%.

For the molecule `COc1ccc2c(c1)COc1ccc(OCc3ccc4ccc(Cl)cc4n3)cc1C2SCCC(=O)O` (centres unmarked) [Example 13, 11-(2-Carboxyethylthio)-2-(7-chloroquinolin-2-yl)methoxy-8-methoxy-6,11-dihydrodibenz[b,e]oxepine], the Ki in experiment [1] (pKi value) is 0.794 nM. Moreover, the inhibition in vivo at 1 mg/kg in experiment [2] turned out to be 67%.

The molecule `O=C(O)CSC1c2ccccc2COc2ccc(OCc3ccc4ccc(Cl)cc4n3)cc21` (centres unmarked) [Example 21, 11-Carboxymethylthio-2-(7-chloroquinolin-2-yl)methoxy-6,11-dihydrodibenz[b,e]oxepine] gave a Ki in experiment [1] (pKi value) of 0.794 nM. Further, the inhibition in vivo at 1 mg/kg in experiment [2] was 71%.

`O=C(O)COC1c2ccccc2COc2ccc(OCc3ccc4cc(Cl)ccc4n3)cc21` (centres unmarked) [Example 26, 11-Carboxymethoxy-2-(6-Chloroquinolin-2-yl)methoxy-6,11-dihydrodibenz[b,e]oxepine]: the Ki in experiment [1] (setting [3]) is 1.58 nM. Also, the inhibition in vivo at 1 mg/kg in experiment [2] is 87%.
